Entries after “also recorded” stand apart in the source; their conditions may differ. Where a SMILES comes first, the peptide text is derived from it. [ ]: non-standard residue; d: D form. The star is where a group is joined. Sta = CC(C)C[C@H](N)[C@@H](O)CC(=O)O; Isovaleryl = CC(C)CC(=O)*; Nle = CCCC[C@H](N)C(=O)O; Cbz = O=C(OCc1ccccc1)*; CH2F = FC*
Key:
PC3 cells [1] = assay: PC3 cell viability and cell death (PI exclusion, annexin V, caspase-3/7); format: cell-based, human
Protocol: Cell viability and cell cycle analysis. Cell number and viability was measured using trypan blue exclusion assay using a Vi-Cell Analyzer (Beckman Coulter), or labeled with 1 μg/ml PI in PBS/1% BSA followed by cytofluorometric analysis with a fluorescence-activated cell sorter (FACS) (Becton Dickinson). FITC-conjugated Annexin V was used for the assessment of phosphatidylserine exposure by FACS analysis. Caspase activation was analyzed using a Caspase-Glo 3/7 Assay kit (Promega). For cell cycle analysis, cells were fixed with drop-wise addition of chilled 70% ethanol, washed with PBS and resuspended in staining solution containing 50 μg/ml PI and 60 units of RNAse A. DNA content was analyzed by flow cytometry using the FlowJo and ModFit software (Becton Dickinson).

PC3 cells [2] = assay: Autophagy markers in PC3 cells (EM AVs, GFP-LC3, LC3-II/LC3-I, MDC, AO); format: cell-based, human
Protocol: Western blot analysis, immunofluorescence, 1HC and TUNEL assay: For Western blot analysis, total protein lysates were subjected to SDS-PAGE and transferred to nitrocellulose. […] Detection and quantification were performed using an Odyssey infrared scanner (LICOR) using the manufacturer's software. For immunofluorescence staining, cells were fixed in 3% paraformaldehyde and permeabilized with 0.01% digitonin in PBS, followed by a rabbit polyclonal anti-LC3 (Abgent) primary antibody detected with a cy3-conjugated anti-rabbit secondary antibody (Jackson Immunoresearch). For IHC, formalin-fixed, paraffin-embedded specimens were collected. 5-μm-thick paraffin-embedded sections were stained using an anti-Ki-67 (MIB-1, DakoCytomation) antibody with the Dako ARK kit (Dako Corporation). Tissues were counterstained with haematoxylin, dehydrated, and mounted. In all cases, antigen retrieval was performed with the Dako Target Retrieval Kit as per manufacturer's instructions. For TUNEL assay, formalin-fixed, paraffin-embedded sections were stained using an in situ cell death detection kit (POD; Roche Diagnostic) according to the manufacturer's instructions.
Ultrathin sections were stained with uranyl acetate and lead citrate. Numbers of AV were counted on systematically sampled cytoplasmic areas of 4.5 μm^2 (n≧64 per condition). The percent AV area was measured by means of a square mesh grid laid over ≧5 sets of systematically sampled micrographs with each set covering a cytoplasmic area ≧80 μm^2. The average percent of apoptotic nuclei in tumor tissues was calculated from the number of apoptotic nuclei in 3 to 4 sets of 100 systematically counted tumor cell nuclei.
Multispectral imaging flow cytometry: Cells treated with various agents were stained with Acridine Orange and analyzed by the ImageStream system (Amnis Corporation, Seattle, Wash.) using the IDEAS image analysis program. The DNA AOGreen image and the vacuolar AO Red image were first compensated into separate channels, and then the percentage of apoptotic/anucleate cells (based on AO nuclear morphology and intensity) and vacuolated cells (AO Red+) were quantified. […] AORed Intensity is plotted on the second histogram with an arbitrary gate (R5) drawn to include events with the brightest AO Red intensity.

PC3 cells [3] = assay: Mitochondrial superoxide (MitoSOX red) and cellular ROS in PC3 cells; format: cell-based, human
Protocol: (B) PC3 cells treated as in A were stained with the Image-iT LIVE green ROS Detection kit and examined by fluorescence microscopy at 24 h. […] (C) Quantification of MitoSOX red and ROS green fluorescence intensities by flow cytometry at 24 h. Cells were treated as in A and B. Error bars represent SEM (n=3).
Because mitochondria are the primary intracellular source of superoxide (O2^−) generation, we analyzed O2^− production using MitoSOX red, an O2^− indicator that accumulates in the mitochondria as a function of membrane potential and fluoresces upon oxidation and subsequent binding to DNA.

PC3 cells [4] = assay: Microarray analysis of autophagy gene expression in PC3 cells; format: cell-based, human; conditions: 1 or 5 μM for 6 or 24 hours, normalized to DMSO
Protocol: PC3 cells were induced to express shRNA to indicated Akt isoforms for 72 hours by Doxycycline, RNA was extracted from both Dox treated (Dox+) or untreated control (Dox−) cells. Microarray analysis was carried out using Affymetrix chips. Ratios of the expression levels of each autophagy gene from Dox+ and Dox− samples are shown. Data are mean values from 3 independent experiments.
RNA was extracted from the cells. Microarray analysis was carried out using Affymetrix chips. Expression levels of each autophagy gene are normalized to the DMSO controls. Data are mean values from 3 independent experiments.

[5] = Autophagic vacuole accumulation by side scatter (SSC) in a flow cytometer; format: cell-based
Description: Inhibitors include 3-phenyl-2-(4-((4-(5-(pyridin-2-yl)-1H-1,2,4-triazol-3-yl)piperidin-1-yl)methyl)phenyl)-1,6-naphthyridin-5(6H)-one (II-3), benzyl 2-(4-(3-ethylureido)phenyl)-4-(1,4-oxazepan-4-yl)-5H-pyrrolo[3,4-d]pyrimidine-6(7H)-carboxylate (III-1); 1-ethyl-3-(4-(4-morpholino-7-(pyrimidin-2-yl)-5,6,7,8-tetrahydropyrido[3,4-d]pyrimidin-2-yl)phenyl)urea (III-2), (R)-1-(44(2-(2-aminopyrimidin-5-yl)-7-methyl-4-morpholinothieno[3,2-d]pyrimidin-6-yl)methyl)piperazin-1-yl)-2-hydroxypropan-1-one (III-3), 4-(2-(1H-indazol-4-yl)-6-((4-(methylsulfonyl)piperazin-1-yl)methyl)thieno[3,2-d]pyrimidin-4-yl)morpholine (III-6), (S)—N-(4-(benzo[d][1,3]dioxol-5-yl)thiazol-2-yl)-N-(3-(2-formylpiperidin-1-yl)propyl)thiophene-2-carboxamide (IV-2) and Rapamycin.
FIG. 14 depicts CQ (10 μM) increases the number and size of autophagic vacuoles when combined with the various mTOR, PI3K, and Akt inhibitors.

Akt = assay: Immunoblot of Akt and S6 phosphorylation in PC3 cells; format: cell-based, human; conditions: 5 mM NAC
Description: Western blot analysis, immunofluorescence, 1HC and TUNEL assay: For Western blot analysis, total protein lysates were subjected to SDS-PAGE and transferred to nitrocellulose. Antibodies used were: anti-Akt1, anti-Akt2, anti-Akt3, anti-total-Akt, anti-p-Akt (Ser473), anti-p-Akt (Thr308), anti-p-S6 (Ser235/236), anti-PARP and anti-cleaved caspase-3 (Cell Signaling Technology); anti-p-PRAS40 (Invitrogen); anti-p27^Kip1 (Santa Cruz Biotechnology); anti-LC3 (Novus); anti-LAMP2 and anti-Cathepsin D (BD Biosciences); and anti-GAPDH (Advanced Immunochemical Inc.). Primary antibodies were detected using IR Dye 800-conjugated (Rockland) and Alexa-Fluoro 680-conjugated (Molecular Probes) species-selective secondary antibodies. Detection and quantification were performed using an Odyssey infrared scanner (LICOR) using the manufacturer's software. For immunofluorescence staining, cells were fixed in 3% paraformaldehyde and permeabilized with 0.01% digitonin in PBS, followed by a rabbit polyclonal anti-LC3 (Abgent) primary antibody detected with a cy3-conjugated anti-rabbit secondary antibody (Jackson Immunoresearch). For IHC, formalin-fixed, paraffin-embedded specimens were collected. 5-μm-thick paraffin-embedded sections were stained using an anti-Ki-67 (MIB-1, DakoCytomation) antibody with the Dako ARK kit (Dako Corporation). Tissues were counterstained with haematoxylin, dehydrated, and mounted. In all cases, antigen retrieval was performed with the Dako Target Retrieval Kit as per manufacturer's instructions. For TUNEL assay, formalin-fixed, paraffin-embedded sections were stained using an in situ cell death detection kit (POD; Roche Diagnostic) according to the manufacturer's instructions.

| Structure (SMILES) | rescue of cell death induced by II-4 (Akti) and CQ (PC3 cells [1]) | autophagic vacuole accumulation (SSC), inhibitor alone [5] | also measured |
| --- | --- | --- | --- |
| Cn1cnc(N)c2ncnc1-2 [3-MA, 3-methyladenine] | – | – | effect of 3-MA pretreatment on cell death promoted by CQ or Ba in shAkt expressing cells (PC3 cells [1]; 1 mM 3-MA): delayed this effect; also recorded: suppressed the cell death-promoting effect of either CQ or Ba; effect of 3-MA on rate of cell death in III-5 and CQ treated cells (PC3 cells [1]; 3-MA pretreatment): slowed down the rate of cell death; effect of 3-MA on LC3-II to -I ratios and MDC+ vacuoles in III-5 and CQ treated cells (PC3 cells [2]; 3-MA pretreatment): suppressed this effect; also recorded: reduced both LC3-II to -I ratios and the accumulation of MDC^+ vacuoles; effect of 3-MA pretreatment on ROS levels (PC3 cells [3]): reduced ROS signals generated by CQ, Akti and Akti+CQ; also recorded: reduced ROS levels induced by II-4 |
| CO/C1=C\C(C)=C\[C@@H](C)[C@@H](O)[C@@H](C)C/C(C)=C/C=C/[C@H](OC)[C@@H]([C@@H](C)[C@@H](O)[C@H](C)[C@@]2(O)C[C@@H](O)[C@H](C)[C@@H](C(C)C)O2)OC1=O [Ba, bafilomycin A1] | – | – | cell death in combination with shAkt123 (PC3 cells [1]; Dox, 10 μM CQ or […] Ba, 0.5% or 0% FBS): promoted cell death in combination with shAkt 123 |
| CCCNC(=O)[C@H]1O[C@@H]1C(=O)N[C@H](C(=O)N1CCC[C@H]1C(=O)OC)[C@@H](C)CC [CA-074-Me] | Neither of the broad-spectrum cysteine protease inhibitors zFA.fmk and N-Acetyl-Leu-Leu-Nle-CHO nor a more specific cathepsin B inhibitor CA-074-Me showed significant rescue of cell death | – | – |
| Cc1nc(-c2ccc(CN3CCC(n4c(=O)[nH]c5ccccc54)CC3)cc2)c(-c2ccccc2)nc1O [II-1, 1-(1-(4-(5-hydroxy-6-methyl-3-phenylpyrazin-2-yl)benzyl)piperidin-4-yl)-1H-benzo[d]imidazol-2(3H)-one] | – | – | autophagy gene expression (PC3 cells [4]): induce autophagy gene expression |
| O=c1[nH]ccc2nc(-c3ccc(CN4CCC(c5n[nH]c(-c6ccccn6)n5)CC4)cc3)c(-c3ccccc3)cc12 [II-3, 3-phenyl-2-(4-((4-(5-(pyridin-2-yl)-1H-1,2,4-triazol-3-yl)piperidin-1-yl)methyl)phenyl)-1,6-naphthyridin-5(6H)-one] | – | induce increased autophagic vacuole accumulation | – |
| CCNC(=O)Nc1ccc(-c2nc3c(c(N4CCCOCC4)n2)CN(C(=O)OCc2ccccc2)C3)cc1 [III-1, benzyl 2-(4-(3-ethylureido)phenyl)-4-(1,4-oxazepan-4-yl)-5H-pyrrolo[3,4-d]pyrimidine-6(7H)-carboxylate] | – | induce increased autophagic vacuole accumulation | – |
| CCNC(=O)Nc1ccc(-c2nc3c(c(N4CCOCC4)n2)CCN(c2ncccn2)C3)cc1 [III-2, 1-ethyl-3-(4-(4-morpholino-7-(pyrimidin-2-yl)-5,6,7,8-tetrahydropyrido[3,4-d]pyrimidin-2-yl)phenyl)urea] | – | induce increased autophagic vacuole accumulation | – |
| Cc1c(CN2CCN(C(=O)[C@@H](C)O)CC2)sc2c(N3CCOCC3)nc(-c3cnc(N)nc3)nc12 [III-3] | – | induce increased autophagic vacuole accumulation | – |
| NC(=O)[C@@H]1CCCCN1CCCN(C(=O)c1cccs1)c1nc(-c2cc(-c3ccccc3)no2)cs1 [IV-1, (S)-1-(3-(N-(4-(3-phenylisoxazol-5-yl)thiazol-2-yl)thiophene-2-carboxamido)propyl)piperidine-2-carboxamide] | – | – | autophagy gene expression (PC3 cells [4]): induce autophagy gene expression |
| O=C[C@@H]1CCCCN1CCCN(C(=O)c1cccs1)c1nc(-c2ccc3c(c2)OCO3)cs1 [IV-2, (S)—N-(4-(benzo[d][1,3]dioxol-5-yl)thiazol-2-yl)-N-(3-(2-formylpiperidin-1-yl)propyl)thiophene-2-carboxamide] | – | induce increased autophagic vacuole accumulation | – |
| CCCC[C@@H](C=O)NC(=O)[C@H](CC(C)C)NC(=O)[C@H](CC(C)C)NC(C)=O [N-Acetyl-Leu-Leu-Nle-CHO] (Ac-Leu-Leu-[Nle]-aldehyde) | Neither of the broad-spectrum cysteine protease inhibitors zFA.fmk and N-Acetyl-Leu-Leu-Nle-CHO nor a more specific cathepsin B inhibitor CA-074-Me showed significant rescue of cell death | – | – |
| CC(=O)N[C@@H](CS)C(=O)O [NAC, N-acetylcysteine] | NAC rescued cell death induced by Akti+CQ; also recorded: rescued cell viability in the presence of II-4 and CQ | – | effect of NAC on Akti-induced autophagy markers (PC3 cells [2]; 5 mM NAC): counteracted all these effects induced by Akti with or without CQ; also recorded: reduced Akti-induced LC3 and GFP-LC3 lipidation, p62 degradation, and GFP-LC3 puncta formation; effect of NAC on Akti's inhibition of pAkt or pS6 (Akt): did not affect Akti's ability to inhibit pAkt or pS6; effect of NAC on MitoSOX Red signal (PC3 cells [3]; 5 mM NAC): reduced MitoSOX Red signal induced by the various treatments |
| CO[C@H]1C[C@@H]2CC[C@@H](C)[C@@](O)(O2)C(=O)C(=O)N2CCCC[C@H]2C(=O)O[C@H]([C@H](C)C[C@@H]2CC[C@@H](O)[C@H](OC)C2)CC(=O)[C@H](C)/C=C(\C)[C@@H](O)[C@@H](OC)C(=O)[C@H](C)C[C@H](C)/C=C/C=C/C=C/1C [Rapamycin, rapamycin] | – | induce increased autophagic vacuole accumulation | – |
| CC(C)CC(=O)N[C@H](C(=O)N[C@H](C(=O)N[C@@H](CC(C)C)[C@@H](O)CC(=O)N[C@@H](C)C(=O)N[C@@H](CC(C)C)[C@@H](O)CC(=O)O)C(C)C)C(C)C [pepstatin A] (Isovaleryl-VV[Sta]A[Sta]-OH) | – | – | cell death in combination with II-4 (Akti) (PC3 cells [1]): promoted cell death together with Akti-112 |
| CC(NC(=O)[C@H](Cc1ccccc1)NC(=O)OCc1ccccc1)C(=O)CF (stereo partly shown) [zFA.fmk] | Neither of the broad-spectrum cysteine protease inhibitors zFA.fmk and N-Acetyl-Leu-Leu-Nle-CHO nor a more specific cathepsin B inhibitor CA-074-Me showed significant rescue of cell death | – | – |
| COC(=O)C[C@H](NC(=O)[C@H](C)NC(=O)[C@@H](NC(=O)OCc1ccccc1)C(C)C)C(=O)CF [zVAD.fmk] (Cbz-Val-Ala-Asp(OMe)-CH2F) | partially rescued cell death at all concentrations tested | – | – |

From patent US20140004209A1, “AUTOPHAGY INDUCER AND INHIBITOR COMBINATION THERAPY FOR THE TREATMENT OF NEOPLASMS” (GENENTECH, INC., priority 2010, published 2014)
